This passage reports melting point and EC50 results from patent US8513252B2, “Pyrazole derivatives and their use as positive allosteric modulators of metabotropic glutamate receptors” (Addex Pharma S.A., priority 2009, dated 2013).

Data set [1] has as its target T1, recombinant human mGluR4a receptors (Homo sapiens, UniProt Q14833).
T1 construct: expressed in transfected cells
The data set can be described thus: mGluR4 assay on HEK-expressing human mGluR4: fluorescent cell based Ca2+ mobilization assay (FLIPR). The note with it: HEK-293 cells expressing hmGluR4; potentiation of EC25 glutamate; mean of at least three independent experiments in duplicate; read-out: Ca^2+ Flux (mean EC50). The source says:
mGluR4 Assay on HEK-Expressing Human mGluR4
The compounds of the present invention are positive allosteric modulators of mGluR4 receptor. Their activity was examined on recombinant human mGluR4a receptors by detecting changes in intracellular Ca^2+ concentration, using the fluorescent Ca^2+-sensitive dye Fluo4-(AM) and a Fluorometric Imaging Plate Reader (FLIPR, Molecular Devices, Sunnyvale, Calif.).
The cDNA encoding the human metabotropic glutamate receptor (hmGluR4), (accession number NM_000841.1, NCBI Nucleotide database browser), was subcloned into an expression vector containing also the hygromycin resistance gene. In parallel, the cDNA encoding a G protein allowing redirection of the activation signal to intracellular calcium flux was subcloned into a different expression vector containing also the puromycin resistance gene. Transfection of both these vectors into HEK293 cells with PolyFect reagent (Qiagen) according to supplier's protocol, and hygromycin and puromycin treatment allowed selection of antibiotic resistant cells which had integrated stably one or more copies of the plasmids. Positive cellular clones expressing hmGluR4 were identified in a functional assay measuring changes in calcium fluxes in response to glutamate or selective known mGluR4 orthosteric agonists and antagonists.
HEK-293 cells expressing hmGluR4 were maintained in media containing DMEM, dialyzed Fetal Calf Serum (10%), Glutamax™ (2 mM), Penicillin (100 units/mL), Streptomycin (100 μg/mL), Geneticin (100 μg/mL) and Hygromycin-B (40 μg/mL) and puromycin (1 μg/mL) at 37° C./5% CO2.
Human mGluR4 HEK-293 cells were plated out 24 hours prior to FLIPR^384 assay in black-walled, clear-bottomed, poly-L-ornithine-coated 384-well plates at a density of 25,000 cells/well in a glutamine/glutamate free DMEM medium containing foetal bovine serum (10%), penicillin (100 units/mL) and streptomycin (100 μg/mL) at 37° C./5% CO2.
On the day of the assay, the medium was aspirated and the cells were loaded with a 3 μM solution of Fluo-4-AM (LuBioScience, Lucerne, Switzerland) in 0.03% pluronic acid. After 1 hour at 37° C./5% CO2, the non incorporated dye was removed by washing cell plate with the assay buffer and the cells were left in the dark at room temperature for […] before testing. All assays were performed in a pH 7.4 buffered-solution containing 20 mM HEPES, 143 mM NaCl, 6 mM KCl, 1 mM MgSO4, 1 mM CaCl2, 0.125 mM sulfapyrazone and 0.1% glucose.
After 10 s of basal fluorescence recording, various concentrations of the compounds of the invention were added to the cells. Changes in fluorescence levels were first monitored for 180 s in order to detect any agonist activity of the compounds. Then the cells were stimulated by an EC25 glutamate concentration for an additional 110 s in order to measure enhancing activities of the compounds of the invention. EC25 glutamate concentration is the concentration giving 25% of the maximal glutamate response.
The concentration-response curves of representative compounds of the present invention were generated using the Prism GraphPad software (Graph Pad Inc, San Diego, USA). The curves were fitted to a four-parameter logistic equation: (Y=Bottom+(Top-Bottom)/(1+10^((Log EC50−X)*Hill Slope) allowing the determination of EC50 values.
The Table 4 below represents the mean EC50 obtained from at least three independent experiments of selected molecules performed in duplicate.
On the technique in general: Calcium flux is commonly read through the fluorescence of an indicator in the cells.

T1 sequence (Q14833 33-912): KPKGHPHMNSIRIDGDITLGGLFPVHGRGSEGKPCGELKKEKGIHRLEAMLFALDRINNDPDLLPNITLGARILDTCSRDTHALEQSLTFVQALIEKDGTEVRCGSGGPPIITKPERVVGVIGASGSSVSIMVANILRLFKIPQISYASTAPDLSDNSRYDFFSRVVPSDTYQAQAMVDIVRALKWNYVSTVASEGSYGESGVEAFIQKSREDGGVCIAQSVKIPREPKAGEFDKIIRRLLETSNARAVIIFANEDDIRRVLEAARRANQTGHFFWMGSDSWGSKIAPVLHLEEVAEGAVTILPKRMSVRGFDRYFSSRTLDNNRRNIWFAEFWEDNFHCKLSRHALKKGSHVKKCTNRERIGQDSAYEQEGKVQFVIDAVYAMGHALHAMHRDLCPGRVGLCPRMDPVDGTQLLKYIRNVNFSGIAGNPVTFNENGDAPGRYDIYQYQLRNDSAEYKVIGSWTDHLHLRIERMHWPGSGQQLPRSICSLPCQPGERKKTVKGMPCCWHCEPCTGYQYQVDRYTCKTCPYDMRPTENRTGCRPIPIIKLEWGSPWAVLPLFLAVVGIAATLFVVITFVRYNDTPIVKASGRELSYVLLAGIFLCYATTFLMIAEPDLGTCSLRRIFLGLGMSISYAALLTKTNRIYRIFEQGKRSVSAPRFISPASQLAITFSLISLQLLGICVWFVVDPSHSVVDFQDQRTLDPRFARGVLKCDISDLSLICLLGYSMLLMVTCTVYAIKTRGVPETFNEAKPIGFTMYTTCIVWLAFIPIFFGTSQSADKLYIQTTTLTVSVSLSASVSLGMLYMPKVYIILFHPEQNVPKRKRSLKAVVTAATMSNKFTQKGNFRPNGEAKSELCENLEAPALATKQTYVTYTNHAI

With `Cc1[nH]ncc1-c1csc(Oc2ncccn2)n1` [Compound 1-4, 4-(5-Methyl-1H-pyrazol-4-yl)-2-(pyrimidin-2-yloxy)thiazole], the melting point was 177 °C.

In turn, `FC(F)(F)c1n[nH]cc1-c1nsc(Oc2ccccn2)n1` [Compound 1-2, 5-(Pyridin-2-yloxy)-3-(3-(trifluoromethyl)-1H-pyrazol-4-yl)-1,2,4-thiadiazole] displayed a melting point of 245 to 247 °C. In addition, the EC50 in data set [1] was less than 0.1 µM.

The compound `Cc1n[nH]cc1-c1csc(Oc2cccc(Cl)n2)n1` [Compound 1-7, 2-(6-Chloropyridin-2-yloxy)-4-(3-methyl-1H-pyrazol-4-yl)thiazole] gave a melting point of 158 to 161 °C. Besides, the concentration for a half-maximal effect (EC50) in data set [1] is less than 0.1 µM.

For the compound `Cc1cccc(Oc2nc(-c3cn[nH]c3)cs2)n1` [Compound 1-10, 2-(6-Methylpyridin-2-yloxy)-4-(1H-pyrazol-4-yl)thiazole], the melting point was in the range of 176 to 178 °C. In addition, in data set [1], the EC50 was less than 0.1 µM.

In turn, `c1ccc(Oc2nc(-c3cn[nH]c3)cs2)nc1` [Compound 1-6, 4-(1H-Pyrazol-4-yl)-2-(pyridin-2-yloxy)thiazole] showed a melting point of 151 to 152 °C.

The compound `Cc1cccc(Oc2nc(-c3c[nH]nc3C)cs2)n1` [Compound 1-11, 4-(3-Methyl-1H-pyrazol-4-yl)-2-(6-methylpyridin-2-yloxy)thiazole] displayed a melting point of 138 to 139 °C.

`Fc1cccc(F)c1Oc1nc(-c2cn[nH]c2)cs1` [Compound 1-5, 2-(2,6-Difluorophenoxy)-4-(1H-pyrazol-4-yl)thiazole] displayed a melting point of 131 to 135 °C. Besides, the half-maximal effective concentration (EC50) in data set [1] was in the range of 0.1 to 1 µM.

Compound `CC(=O)c1n[nH]cc1-c1csc(Oc2cccc(C)n2)n1` [Compound 1-9, 1-(4-(2-(6-Methylpyridin-2-yloxy)thiazol-4-yl)-1H-pyrazol-3-yl)ethanone] had a melting point of 194 to 195 °C.

As for `Cc1n[nH]cc1-c1nsc(Oc2ccccc2)n1` [Compound 1-1, 3-(3-Methyl-1H-pyrazol-4-yl)-5-phenoxy-1,2,4-thiadiazole], the melting point lay within 165 to 166 °C. Besides, the EC50 in data set [1] fell in the range of 1 to 10 µM.

Compound `Cc1n[nH]cc1-c1csc(Oc2ncccc2F)n1` [Compound 1-8, 2-(3-Fluoropyridin-2-yloxy)-4-(3-methyl-1H-pyrazol-4-yl)thiazole] returned a melting point of 160 °C.

Take `N#Cc1sc(Oc2cccc(Cl)n2)nc1-c1cn[nH]c1` [Compound 1-21, 2-(6-Chloropyridin-2-yloxy)-4-(1H-pyrazol-4-yl)thiazole-5-carbonitrile]: the EC50 in data set [1] was less than 0.1 µM.

Take `Fc1ccc(Oc2nc(-c3cn[nH]c3)cs2)nc1` [Compound 1-18, 2-(5-Fluoropyridin-2-yloxy)-4-(1H-pyrazol-4-yl)thiazole]: in data set [1], the EC50 was 0.1 to 1 µM.

What is called melting point is the temperature, or range, at which the solid turns liquid. For orientation: EC50 means the concentration needed to bring the measured effect to its halfway point.
